Results on six compounds are retold here after ChEMBL document CHEMBL5338783, “Discovery of an Anti-TNF-α 9-mer Peptide from a T7 Phage Display Library for the Treatment of Inflammatory Bowel Disease” (J Med Chem, 2023).

Active and inactive are the calls of the source. The rule behind the calls is not given here. Peptide text beside a SMILES is read from it.

The target of one experiment is T1, Tumor necrosis factor (Homo sapiens, UniProt P01375). Description: Binding affinity to recombinant TNF-alpha (unknown origin) assessed as dissociation constant incubated for 10 mins by MST assay.
T1 sequence (P01375 whole entry): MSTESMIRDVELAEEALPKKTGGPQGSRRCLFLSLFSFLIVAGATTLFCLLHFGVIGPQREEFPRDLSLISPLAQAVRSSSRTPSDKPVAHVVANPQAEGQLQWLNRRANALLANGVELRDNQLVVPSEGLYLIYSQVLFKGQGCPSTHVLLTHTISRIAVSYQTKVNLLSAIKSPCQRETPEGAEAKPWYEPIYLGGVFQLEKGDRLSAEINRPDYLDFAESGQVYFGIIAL
Conditions: not given
As to `C[C@H](N)C(=O)N[C@@H](CS)C(=O)N[C@@H](C)C(=O)N[C@@H](C)C(=O)N[C@@H](Cc1c[nH]c2ccccc12)C(=O)N[C@@H](C)C(=O)N1CCC[C@H]1C(=O)N[C@H](C(=O)N[C@@H](CCCNC(=N)N)C(=O)O)[C@@H](C)O` (H-ACAAWAPTR-OH), the dissociation constant Kd (as a rule, a measure of binding affinity in units of concentration) is 230 µM.
As to `C[C@H](N)C(=O)N[C@@H](CS)C(=O)N[C@@H](Cc1c[nH]cn1)C(=O)N[C@@H](C)C(=O)N[C@@H](C)C(=O)N[C@@H](C)C(=O)N1CCC[C@H]1C(=O)N[C@H](C(=O)N[C@@H](CCCNC(=N)N)C(=O)O)[C@@H](C)O` (H-ACHAAAPTR-OH), the dissociation constant Kd was determined as 563 µM.
The same measure, in the same setting: for `C[C@H](N)C(=O)N[C@@H](CS)C(=O)N[C@@H](Cc1c[nH]cn1)C(=O)N[C@@H](C)C(=O)N[C@@H](Cc1c[nH]c2ccccc12)C(=O)N[C@@H](C)C(=O)N[C@@H](C)C(=O)N[C@H](C(=O)N[C@@H](CCCNC(=N)N)C(=O)O)[C@@H](C)O` (H-ACHAWAATR-OH) the value was 9.06 µM.
On the same count and under the same terms, for `C[C@H](N)C(=O)N[C@@H](CS)C(=O)N[C@@H](Cc1c[nH]cn1)C(=O)N[C@@H](C)C(=O)N[C@@H](Cc1c[nH]c2ccccc12)C(=O)N[C@@H](C)C(=O)N1CCC[C@H]1C(=O)N[C@@H](C)C(=O)N[C@@H](CCCNC(=N)N)C(=O)O` (H-ACHAWAPAR-OH) the value was 18 µM.

A further experiment concerns the target T1, Tumor necrosis factor. The experiment is described as follows: Binding affinity to recombinant TNF-alpha (unknown origin) at 488.3 to 500 uM incubated for 10 mins by MST assay. To be noted: dose 488.3-500 µM.
On to `CC[C@H](C)[C@H](NC(=O)[C@H](CCCCN)NC(=O)[C@H](CCCCN)NC(=O)[C@H](C)N)C(=O)N[C@H](C(=O)N[C@@H](CC(C)C)C(=O)N[C@@H](CCCNC(=N)N)C(=O)N[C@@H](CC(C)C)C(=O)N[C@@H](CO)C(=O)O)[C@@H](C)CC` (H-AKKIILRLS-OH), for which the result was inactive.
Take `CC[C@H](C)[C@H](NC(=O)CNC(=O)[C@H](CC(C)C)NC(=O)[C@H](CC(C)C)NC(=O)[C@H](CO)NC(=O)[C@H](CC(C)C)NC(=O)[C@@H](NC(=O)[C@H](CCC(N)=O)NC(=O)[C@@H](N)CC(N)=O)[C@@H](C)CC)C(=O)O` (H-NQILSLLGI-OH): the result was inactive.
